Experimental data published in US20230382925A1, “MODULATORS OF CYSTIC FIBROSIS TRANSMEMBRANE CONDUCTANCE REGULATOR” (VERTEX PHARMACEUTICALS INCORPORATED, priority 2020, published 2023).
Several values for one entry are separate records, joined by “and”; a condition that tells them apart may be missing. Equal entries are not always repeated. Where two headings read alike, the source gives them in different places. Values belong to the molecule of their own block, whether it stands above or below them.

Tests used:
CFTR = CFTR (Homo sapiens, UniProt P13569); assay: Membrane Potential Dye, Enteroid Assay B; type: cell-based
Chain of CFTR (P13569 with tags, fused parts or gaps DEL508-508): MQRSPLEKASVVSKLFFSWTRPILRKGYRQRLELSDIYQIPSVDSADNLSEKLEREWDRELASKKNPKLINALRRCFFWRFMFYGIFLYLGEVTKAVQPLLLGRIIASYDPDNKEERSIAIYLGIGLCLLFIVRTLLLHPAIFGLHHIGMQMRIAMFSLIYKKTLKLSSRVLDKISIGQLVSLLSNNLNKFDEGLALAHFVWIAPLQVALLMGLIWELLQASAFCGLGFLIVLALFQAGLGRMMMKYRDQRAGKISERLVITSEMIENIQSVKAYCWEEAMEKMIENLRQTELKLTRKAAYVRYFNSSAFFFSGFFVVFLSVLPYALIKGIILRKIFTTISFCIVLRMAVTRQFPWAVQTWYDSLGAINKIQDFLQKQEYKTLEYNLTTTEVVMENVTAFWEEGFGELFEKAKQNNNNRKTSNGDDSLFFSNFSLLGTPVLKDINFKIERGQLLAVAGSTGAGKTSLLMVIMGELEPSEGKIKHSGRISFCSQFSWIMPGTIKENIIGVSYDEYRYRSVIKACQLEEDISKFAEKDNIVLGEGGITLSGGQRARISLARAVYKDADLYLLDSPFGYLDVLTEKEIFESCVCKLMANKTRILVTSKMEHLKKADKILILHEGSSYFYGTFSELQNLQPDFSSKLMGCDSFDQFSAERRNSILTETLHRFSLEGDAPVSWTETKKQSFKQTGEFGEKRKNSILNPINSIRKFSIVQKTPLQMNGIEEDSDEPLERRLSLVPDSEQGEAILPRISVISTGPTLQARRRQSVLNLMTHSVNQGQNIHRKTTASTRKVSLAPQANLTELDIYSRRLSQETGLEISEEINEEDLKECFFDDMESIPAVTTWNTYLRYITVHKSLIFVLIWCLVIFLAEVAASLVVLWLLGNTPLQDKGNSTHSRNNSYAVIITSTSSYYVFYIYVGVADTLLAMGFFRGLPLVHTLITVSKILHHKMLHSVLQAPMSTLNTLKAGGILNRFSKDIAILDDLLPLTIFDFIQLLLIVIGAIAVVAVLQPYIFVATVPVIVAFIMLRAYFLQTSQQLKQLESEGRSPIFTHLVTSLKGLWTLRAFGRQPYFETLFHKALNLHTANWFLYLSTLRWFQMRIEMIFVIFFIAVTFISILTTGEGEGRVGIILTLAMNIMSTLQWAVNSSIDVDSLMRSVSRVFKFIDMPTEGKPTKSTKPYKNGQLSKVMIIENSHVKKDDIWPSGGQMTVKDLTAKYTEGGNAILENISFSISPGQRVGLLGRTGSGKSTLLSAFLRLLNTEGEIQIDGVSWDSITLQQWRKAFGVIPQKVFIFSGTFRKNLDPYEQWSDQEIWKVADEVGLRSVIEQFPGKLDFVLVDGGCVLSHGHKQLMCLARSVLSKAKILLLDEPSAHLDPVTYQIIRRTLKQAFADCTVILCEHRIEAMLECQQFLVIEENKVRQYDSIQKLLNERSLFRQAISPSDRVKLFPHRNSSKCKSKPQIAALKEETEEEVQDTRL
Summary of the method: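 Human intestinal enteroid cells exposed to compound 18-24 h at 37 °C, then loaded with methyl oxonol membrane-potential dye plus CaCC blockers. Chloride transport triggered in chloride-free buffer with 10 μM forskolin, 100 μM IBMX, 300 nM Compound III; fluorescence read 15 min, expressed as % of triple-corrector/potentiator combination control.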

[1] = amide bond, 13-membered ring, DMF
[2] = Table 10, read-out: Ent. B EC50

Ent. B Max Activity (%) (CFTR): +++ (+++ is >60%) | EC50 (CFTR; read-out: Ent. B EC50): < 1 µM
SMILES: Cc1cccc(C)c1-c1cc2cc(n1)NS(=O)(=O)c1cccc(n1)C(=O)N(C1CC3(CC3)C1)[C@H](CC(C)C)CO2 [Compound 197, (11R)-6-(2,6-Dimethylphenyl)-11-isobutyl-2,2-dioxo-12-spiro[2.3]hexan-5-yl-9-oxa-2λ^6-thia-3,5,12,18-tetrazatricyclo[12.3.1.14,8]nonadeca-1(18),4(19),5,7,14,16-hexaen-13-one]
ring closure, yield after HPLC ([1]; from Cc1cccc(C)c1-c1cc(OC[C@@H](CC(C)C)NC2CC3(CC3)C2)cc(NS(=O)(=O)c2cccc(C(=O)O)n2)n1, HATU/DIEA, 27.1 mM, 2.0 h): 59%

Ent. B Max Activity (%) (CFTR; Table 9): +++ (+++ is >60%) | EC50 (CFTR; Table 9, read-out: Ent. B EC50): < 1 µM
SMILES: Cc1cc(F)cc(C)c1-c1cc2nc(n1)NS(=O)(=O)c1cccc(c1)C(=O)N(C1CC3(CC3)C1)[C@H](CC(C)C)CO2 [Compound 10, (11R)-6-(4-Fluoro-2,6-dimethyl-phenyl)-11-isobutyl-2,2-dioxo-12-spiro[2.3]hexan-5-yl-9-oxa-2λ^6-thia-3,5,12,19-tetrazatricyclo[12.3.1.14,8]nonadeca-1(18),4(19),5,7,14,16-hexaen-13-one]
ring closure, yield after HPLC ([1]; from Cc1cc(F)cc(C)c1-c1cc(OC[C@@H](CC(C)C)NC2CC3(CC3)C2)nc(NS(=O)(=O)c2cccc(C(=O)O)c2)n1, HATU/TEA, 53.7 mM, 25.0 °C, 4.0 h): 48%

Ent. B Max Activity (%) (CFTR): +++ (+++ is >60%) | EC50 (CFTR; read-out: Ent. B EC50): < 1 µM
SMILES: Cc1cccc(C)c1-c1cc2nc(n1)NS(=O)(=O)c1cncc(n1)C(=O)N(C1CC3(CC3)C1)[C@H](CC(C)C)CO2 [Compound 62, (11R)-6-(2,6-Dimethylphenyl)-11-isobutyl-2,2-dioxo-12-spiro[2.3]hexan-5-yl-9-oxa-2λ^6-thia-3,5,12,16,18,19-hexazatricyclo[12.3.1.14,8]nonadeca-1(18),4(19),5,7,14,16-hexaen-13-one]
ring closure, yield after HPLC ([1]; from Cc1cccc(C)c1-c1cc(OC[C@@H](CC(C)C)NC2CC3(CC3)C2)nc(NS(=O)(=O)c2cncc(C(=O)O)n2)n1, HATU/DIEA, 15.2 mM, 12.0 h): 65%

Ent. B Max Activity (%) (CFTR; Table 10): +++ (+++ is >60%) | EC50 (CFTR; [2]): < 1 µM
SMILES: Cc1cccc(C)c1-c1cc2nc(n1)NS(=O)(=O)c1cccc(c1)C(=O)N(C1Cc3ccccc3C1)[C@H](CC(C)(C)C)CO2 [Compound 183, (11R)-6-(2,6-Dimethylphenyl)-11-(2,2-dimethylpropyl)-12-indan-2-yl-2,2-dioxo-9-oxa-2λ^6-thia-3,5,12,19-tetrazatricyclo[12.3.1.14,8]nonadeca-1(18),4(19),5,7,14,16-hexaen-13-one]
ring closure, yield after HPLC ([1]; from Cc1cccc(C)c1-c1cc(OC[C@@H](CC(C)(C)C)NC2Cc3ccccc3C2)nc(NS(=O)(=O)c2cccc(C(=O)O)c2)n1, CDMT/NMM, 25.7 mM, 24.0 h): 13%

Ent. B Max Activity (%) (CFTR; Table 10): +++ (+++ is >60%) | EC50 (CFTR; [2]): < 1 µM
SMILES: COCCn1cc(N2C(=O)c3cccc(c3)S(=O)(=O)Nc3nc(cc(-c4c(C)cccc4C)n3)OC[C@H]2CCC(C)C)cn1 [Compound 6, (11R)-6-(2,6-Dimethylphenyl)-11-isopentyl-12-[1-(2-methoxyethyl)pyrazol-4-yl]-2,2-dioxo-9-oxa-2λ^6-thia-3,5,12,19-tetrazatricyclo[12.3.1.14,8]nonadeca-1(18),4(19),5,7,14,16-hexaen-13-one]
ring closure, yield after HPLC ([1]; from COCCn1cc(N[C@H](CCC(C)C)COc2cc(-c3c(C)cccc3C)nc(NS(=O)(=O)c3cccc(C(=O)O)c3)n2)cn1, CDMT/NMM, 48.0 h, 2 steps): 16%

Ent. B Max Activity (%) (CFTR; Table 10): +++ (+++ is >60%) | EC50 (CFTR; [2]): < 1 µM
SMILES: Cc1cccc(C)c1-c1cc2nc(n1)NS(=O)(=O)c1cccc(c1)C(=O)N(c1cnn(C)c1)[C@H](CCC(C)C)CO2 [Compound 7, (11R)-6-(2,6-Dimethylphenyl)-11-isopentyl-12-(1-methylpyrazol-4-yl)-2,2-dioxo-9-oxa-2λ^6-thia-3,5,12,19-tetrazatricyclo[12.3.1.14,8]nonadeca-1(18),4(19),5,7,14,16-hexaen-13-one]
ring closure, yield after HPLC ([1]; from Cc1cccc(C)c1-c1cc(OC[C@@H](CCC(C)C)Nc2cnn(C)c2)nc(NS(=O)(=O)c2cccc(C(=O)O)c2)n1, CDMT/NMM, 48.0 h, 2 steps): 19%

Ent. B Max Activity (%) (CFTR; Table 9): +++ (+++ is >60%) | EC50 (CFTR; Table 9, read-out: Ent. B EC50): < 1 µM
SMILES: Cc1cccc(C)c1-c1cc2nc(n1)NS(=O)(=O)c1cc(n(C)n1)C(=O)N(C1CC3(CC3)C1)[C@H](CC(C)C)CO2 [Compound 74, (10R)-15-(2,6-Dimethylphenyl)-10-isobutyl-6-methyl-3,3-dioxo-9-spiro[2.3]hexan-5-yl-12-oxa-3λ^6-thia-2,5,6,9,16,17-hexazatricyclo[11.3.1.14,7]octadeca-1(17),4,7(18),13,15-pentaen-8-one]
ring closure, yield after HPLC ([1]; from Cc1cccc(C)c1-c1cc(OC[C@@H](CC(C)C)NC2CC3(CC3)C2)nc(NS(=O)(=O)c2cc(C(=O)O)n(C)n2)n1, HATU/DIPEA, 4.9 mM, 6.0 h, 2 steps): 10%

Ent. B Max Activity (%) (CFTR; Table 10): +++ (+++ is >60%) | EC50 (CFTR; [2]): < 1 µM
SMILES: COCCn1cc(N2C(=O)c3cccc(c3)S(=O)(=O)Nc3nc(cc(-c4c(C)cccc4C)n3)OC[C@H]2CC(C)C)cn1 [Compound 98, (11R)-6-(2,6-Dimethylphenyl)-11-isobutyl-12-[1-(2-methoxyethyl)pyrazol-4-yl]-2,2-dioxo-9-oxa-2λ^6-thia-3,5,12,19-tetrazatricyclo[12.3.1.14,8]nonadeca-1(18),4(19),5,7,14,16-hexaen-13-one]
ring closure, yield after HPLC ([1]; from COCCn1cc(N[C@@H](COc2cc(-c3c(C)cccc3C)nc(NS(=O)(=O)c3cccc(C(=O)O)c3)n2)CC(C)C)cn1, CDMT/NMM, 48.0 h, 2 steps): 9%

Ent. B Max Activity (%) (CFTR): +++ (+++ is >60%) | EC50 (CFTR; read-out: Ent. B EC50): < 1 µM
SMILES: Cc1cccc(C)c1-c1cc2nc(n1)NS(=O)(=O)c1cccc(c1)C(=O)N(C1CC3(CC3)C1)C[C@@H](C)O2 [Compound 180, (10R)-6-(2,6-Dimethylphenyl)-10-methyl-2,2-dioxo-12-spiro[2.3]hexan-5-yl-9-oxa-2λ^6-thia-3,5,12,19-tetrazatricyclo[12.3.1.14,8]nonadeca-1(18),4(19),5,7,14,16-hexaen-13-one]
ring closure, yield after HPLC ([1]; from Cc1cccc(C)c1-c1cc(O[C@H](C)CNC2CC3(CC3)C2)nc(NS(=O)(=O)c2cccc(C(=O)O)c2)n1, HATU/DIEA, 7.3 mM, 1.0 h, 2 steps): 6%

Ent. B Max Activity (%) (CFTR; Table 10): +++ (+++ is >60%) | EC50 (CFTR; [2]): < 1 µM
SMILES: Cc1cccc(C)c1-c1cc2nc(n1)NS(=O)(=O)c1cccc(c1)C(=O)N(c1cnn(C(C)(C)C)c1)[C@H](CC(C)(C)C)CO2 [Compound 184, (11R)-12-(1-tert-Butylpyrazol-4-yl)-6-(2,6-dimethylphenyl)-11-(2,2-dimethylpropyl)-2,2-dioxo-9-oxa-2λ^6-thia-3,5,12,19-tetrazatricyclo[12.3.1.14,8]nonadeca-1(18),4(19),5,7,14,16-hexaen-13-one]
ring closure, yield after HPLC ([1]; from Cc1cccc(C)c1-c1cc(OC[C@@H](CC(C)(C)C)Nc2cnn(C(C)(C)C)c2)nc(NS(=O)(=O)c2cccc(C(=O)O)c2)n1, CDMT/NMM, 24.9 mM, 48.0 h, 2 steps): 7%

SMILES: Cc1cccc(C)c1-c1cc2nc(n1)NS(=O)(=O)c1cccc(c1)C(=O)N(C1CC(CO)C1)[C@H](CC(C)C)CO2 (some centres unmarked)
ring closure, yield after HPLC ([1]; from Cc1cccc(C)c1-c1cc(OC[C@@H](CC(C)C)NC2CC(CO)C2)nc(NS(=O)(=O)c2cccc(C(=O)O)c2)n1, HATU/DIPEA, 32.3 mM, 1.0 h): 11%

SMILES: COC1C[C@@H]2CC(N3C(=O)c4cccc(c4)S(=O)(=O)Nc4nc(cc(-c5c(C)cccc5C)n4)OC[C@H]3CC(C)C)C[C@@H]2C1 (some centres unmarked)
ring closure, yield after HPLC ([1]; from COC1C[C@H]2CC(N[C@@H](COc3cc(-c4c(C)cccc4C)nc(NS(=O)(=O)c4cccc(C(=O)O)c4)n3)CC(C)C)C[C@H]2C1, COMU/DIEA, 29.7 mM, 14.0 h): 30%

SMILES: Cc1cccc(C)c1-c1cc2nc(n1)NS(=O)(=O)c1cccc(c1)C(=O)N(C1CN(C(=O)OC(C)(C)C)C(C)(C)C1)[C@H](CC(C)C)CO2 (some centres unmarked)
ring closure, yield after HPLC ([1]; from Cc1cccc(C)c1-c1cc(OC[C@@H](CC(C)C)NC2CN(C(=O)OC(C)(C)C)C(C)(C)C2)nc(NS(=O)(=O)c2cccc(C(=O)O)c2)n1, COMU/DIEA, 2 steps): 8% and 4%

SMILES: Cc1cccc(C)c1-c1cc2nc(n1)NS(=O)(=O)c1cccc(c1)C(=O)N(C1CCC1C1CC1)[C@H](CC(C)(C)C)CO2 (some centres unmarked)
ring closure, yield after HPLC ([1]; from Cc1cccc(C)c1-c1cc(OC[C@@H](CC(C)(C)C)NC2CCC2C2CC2)nc(NS(=O)(=O)c2cccc(C(=O)O)c2)n1, CDMT/NMM, 25.0 °C, 2 steps): 2%

Ent. B Max Activity (%) (CFTR; Table 9): +++ (+++ is >60%) | EC50 (CFTR; Table 9, read-out: Ent. B EC50): < 1 µM
SMILES: Cc1cccc(C)c1-c1cc2nc(n1)NS(=O)(=O)c1cccc(c1)C(=O)N(C1CC(OC(C)C)C1)[C@H](CC(C)C)CO2 (stereo partly drawn) [Compound 47, (11R)-6-(2,6-Dimethylphenyl)-11-isobutyl-12-(3-isopropoxycyclobutyl)-2,2-dioxo-9-oxa-2λ^6-thia-3,5,12,19-tetrazatricyclo[12.3.1.14,8]nonadeca-1(18),4(19),5,7,14,16-hexaen-13-one]
ring closure, yield after HPLC ([1]; from Cc1cccc(C)c1-c1cc(OC[C@@H](CC(C)C)NC2CC(OC(C)C)C2)nc(NS(=O)(=O)c2cccc(C(=O)O)c2)n1, HATU/Et3N, 59.2 mM, 2.0 h): 53%

SMILES: Cc1cccc(C)c1-c1cc2nc(n1)NS(=O)(=O)c1cccc(c1)C(=O)N(C1CC3(CC3)C1)C(CC(F)(F)F)CO2 (centres unmarked)
ring closure, yield after HPLC ([1]; from Cc1cccc(C)c1-c1cc(OCC(CC(F)(F)F)NC2CC3(CC3)C2)nc(NS(=O)(=O)c2cccc(C(=O)O)c2)n1, HATU/TEA, 18.3 mM, 18.0 h): 15%
